Assays:
[1] = 400 μg/L in dialysate, 6 months; cited from earlier work
[2] = daily oral 25 mg elemental zinc, 6 months; from 81±8 mcg/dL; normal controls 111±10 μg/dL; p<0.005; cited from earlier work
[3] = zinc supplementation, dialysis patients; cited from earlier work
[4] = in vivo; cited from earlier work
[5] = cited from earlier work
[6] = Daily vitamin K over several years in the general population; assay type: in vivo, human; conditions: 1 mg dose each day over several years
Description: The inventor has discovered that the 10 mcg dose of vitamin K that is provided in conventional multivitamin preparations is too low. […] A composition of their invention comprises vitamin K in doses that are appropriate for subjects with renal disease and provides 25 to 1000 mcg of vitamin K, and a preferred embodiment of a composition of the invention provides 50 mcg of vitamin K.

[7] = daily doses higher than 1 mg/day; cited from earlier work
[8] = blood flow of 200-300 mL/min; cited from earlier work
[9] = up to 200 mg/day; cited from earlier work
[10] = 43 maintenance hemodialysis patients, low flux/low efficiency dialyzers; 200 mg post-dialysis 2-3 times per week (400-600 mg weekly) orally; cited from earlier work
[11] = cited from earlier work; remark: listed apart in the source
[12] = 15 days of treatment with 300 mg/day; hemodialysis patients; cited from earlier work
[13] = single oral dose of 1200 IU; cited from earlier work
[14] = Cholecalciferol dosing, calciuria and hypercalcemia in renal patients; assay type: in vivo, human
Description: The inventor has discovered that these therapeutic approaches are obsolete today because of the risk of prolonged hypercalcemia resulting from the long half-life of 25-(OH)-D3 in renal patients. […] Likewise, the inventor has discovered that repletion of vitamin D to achieve a plasma 25-(OH)-D concentration in the 80th percentile or higher of normal clinical values prevents renal osteodystrophy, Looser zones, and sub-periosteal resorption, despite the persistence of hypocalcemia, hyperphosphatemia and metabolic acidosis, or the use of calcium-aluminum free phosphate binders such as sevelamer salts. Therefore, a composition of the invention comprises 375 to 425 IU of vitamin D and a preferred embodiment of a composition of the invention provides 400 IU of vitamin D.

## [Zn] [zinc]
[1]
  intracellular content of ATP in lymphocytes: increased intracellular content of ATP in lymphocytes
  serum zinc level: significant increase in serum zinc level
[2]
  plasma Zn levels after treatment: 110 ± 14 µg/dL
[3]
  patients with plasma testosterone levels increased into the normal range: 50%
[4]
  plasma level at which zinc toxicity is seen: around 700 mcg/dL

## Fe(III) hydroxide sucrose complex
[5]; 100 mg intravenously
  hemodialysis patients with bleomycin-detectable free iron in the circulation: 8 of the 10
[5]; within ten minutes following infusion of 100 mg
  plasma total peroxide and malondialdehyde concentrations: rise in plasma total peroxide and malondialdehyde concentrations

## vitamin K
[6]
  untoward effects: no untoward effects

## Nc1nc2ncc(CNc3ccc(C(=O)N[C@@H](CCC(=O)O)C(=O)O)cc3)nc2c(=O)[nH]1 [Folic acid]
[7]
  renal patients in whom plasma homocysteine levels are lowered: up to 30%

## O=C1O[C@H]([C@@H](O)CO)C(O)=C1O [vitamin C, ascorbic acid]
[8]
  clearance of vitamin C (ascorbate) during hemodialysis: about 100 mL/min
[9]
  bioavailability: ~100%
[10]
  patients with decreased plasma vitamin C levels / serum levels not maintained despite supplement: 27%

## [Se] [selenium]
[11]; SIRS patients
  APACHE III score versus untreated group: significantly lower
[11]; Se treated SIRS patients
  time to normalization of serum selenium levels and GSH-Px activity: ≤ 3 days
[11]; Se+ group, 52% in the Se− group
  overall mortality: 33.5%

## vitamin E
[12]
  platelet vitamin E levels: increased to the normal range
[13]
  oxidative stress induced by intravenous iron: effective in attenuating the oxidative stress

## C=C1CC[C@H](O)C/C1=C/C=C1\CCC[C@]2(C)[C@@H]([C@H](C)CCCC(C)C)CC[C@@H]12 [cholecalciferol]
[14]; dose of 800 IU or 20 mcg, pre-dialysis patients
  calciuria and hypercalcemia: does not cause an increase in calciuria in pre-dialysis patients nor hypercalcemia
[14]; doses in excess of 2400 IU or 60 mcg/day
  calciuria and hypercalcemia: these complications are seen

Source: patent US8911798B2, “Multivitamin and mineral compositions for individuals having renal disease” (priority 2007, dated 2014)
